Measurements as given in patent publication US20070043024A1, “Azacyclic compounds as inhibitors of sensory neurone specific channels” (priority 2003, published 2007).
Several values for one entry are separate records, joined by “and”; a condition that tells them apart may be missing. Equal entries are not always repeated.

Biological target: T1, human Nav1.8 (hNav1.8) ion channel (Homo sapiens, UniProt Q9Y5Y9)
T1 construct: expressed in transfected cells
Assay: Inhibition of human Nav1.8 stably expressed in SH-SY-5Y cells (membrane potential dye fluorescence assay)
Format: cell-based
Conditions: not given
Procedure: Inhibition of Human Nav1.8 Stably Expressed in SH-SY-5Y Cells
A SH-SY-5Y neuroblastoma cell line stably expressing the human […] (hNav1.8) ion channel was constructed. This cell line has been used to develop a medium to high throughput assay for determining the ability of test compounds to inhibit membrane depolarisation mediated via the hNav1.8 channel.
SH-SY-5Y hNav1.8 are grown in adherent monolayer culture using 50:50 Ham's F-12/EMEM tissue culture medium supplemented with 15% (v/v) foetal bovine serum; 2 mM L-glutamine, 1% NEAA and 600 μg·ml^−1 Geneticin sulphate. Cells are removed from the tissue culture flask using trypsin/EDTA and re-plated into black walled, clear bottom 96-well assay plates at 50,000 cells·well^−1 24 hours prior to assay.
On the day of assay the cell assay plates are washed to remove cell culture medium using a sodium free assay buffer (145 mM tetramethyl ammonium chloride; 2 mM calcium chloride; 0.8 mM magnesium chloride hexahydrate; 10 mM HEPES; 10 mM glucose; 5 mM potassium chloride, pH 7.4). Fluorescent membrane potential dye solution (FLIPR™ membrane potential dye, Molecular Devices Corporation), containing 10 μM of a pyrethroid to prevent channel inactivation and 250 nM tetrodotoxin (TTX) to reduce interference from TTX-sensitive sodium channels present in the cell line. Test compound, initially dissolved in dimethyl sulfoxide but further diluted in sodium free buffer, is added to achieve the final test concentration range of 100 μM-0.05 μM.
Cell plates are incubated for 30 minutes at room temperature to allow equilibration of dye and test compound. Plates are then transferred to a fluorescence plate reader for fluorescence measurement using an excitation wavelength of 530 nm whilst measuring fluorescence emission at 565 nm. Baseline fluorescence levels are first determined before the addition of a sodium containing buffer (220 mM sodium chloride; 2 mM calcium chloride; 0.8 mM magnesium chloride hexahydrate; […]; 10 mM glucose; 5 mM potassium chloride. pH 7.4) to cause membrane depolarisation in those cells where channel block has not been effected (final sodium concentration=72.5 mM). Membrane depolarisation is registered by an increase in fluorescence emission at 565 nm.
The change in fluorescence seen in each test well upon the addition of sodium containing buffer is calculated relative to the baseline fluorescence for that well. This figure is then used for calculating the IC50 for each test compound.

T1 sequence (Q9Y5Y9 whole entry): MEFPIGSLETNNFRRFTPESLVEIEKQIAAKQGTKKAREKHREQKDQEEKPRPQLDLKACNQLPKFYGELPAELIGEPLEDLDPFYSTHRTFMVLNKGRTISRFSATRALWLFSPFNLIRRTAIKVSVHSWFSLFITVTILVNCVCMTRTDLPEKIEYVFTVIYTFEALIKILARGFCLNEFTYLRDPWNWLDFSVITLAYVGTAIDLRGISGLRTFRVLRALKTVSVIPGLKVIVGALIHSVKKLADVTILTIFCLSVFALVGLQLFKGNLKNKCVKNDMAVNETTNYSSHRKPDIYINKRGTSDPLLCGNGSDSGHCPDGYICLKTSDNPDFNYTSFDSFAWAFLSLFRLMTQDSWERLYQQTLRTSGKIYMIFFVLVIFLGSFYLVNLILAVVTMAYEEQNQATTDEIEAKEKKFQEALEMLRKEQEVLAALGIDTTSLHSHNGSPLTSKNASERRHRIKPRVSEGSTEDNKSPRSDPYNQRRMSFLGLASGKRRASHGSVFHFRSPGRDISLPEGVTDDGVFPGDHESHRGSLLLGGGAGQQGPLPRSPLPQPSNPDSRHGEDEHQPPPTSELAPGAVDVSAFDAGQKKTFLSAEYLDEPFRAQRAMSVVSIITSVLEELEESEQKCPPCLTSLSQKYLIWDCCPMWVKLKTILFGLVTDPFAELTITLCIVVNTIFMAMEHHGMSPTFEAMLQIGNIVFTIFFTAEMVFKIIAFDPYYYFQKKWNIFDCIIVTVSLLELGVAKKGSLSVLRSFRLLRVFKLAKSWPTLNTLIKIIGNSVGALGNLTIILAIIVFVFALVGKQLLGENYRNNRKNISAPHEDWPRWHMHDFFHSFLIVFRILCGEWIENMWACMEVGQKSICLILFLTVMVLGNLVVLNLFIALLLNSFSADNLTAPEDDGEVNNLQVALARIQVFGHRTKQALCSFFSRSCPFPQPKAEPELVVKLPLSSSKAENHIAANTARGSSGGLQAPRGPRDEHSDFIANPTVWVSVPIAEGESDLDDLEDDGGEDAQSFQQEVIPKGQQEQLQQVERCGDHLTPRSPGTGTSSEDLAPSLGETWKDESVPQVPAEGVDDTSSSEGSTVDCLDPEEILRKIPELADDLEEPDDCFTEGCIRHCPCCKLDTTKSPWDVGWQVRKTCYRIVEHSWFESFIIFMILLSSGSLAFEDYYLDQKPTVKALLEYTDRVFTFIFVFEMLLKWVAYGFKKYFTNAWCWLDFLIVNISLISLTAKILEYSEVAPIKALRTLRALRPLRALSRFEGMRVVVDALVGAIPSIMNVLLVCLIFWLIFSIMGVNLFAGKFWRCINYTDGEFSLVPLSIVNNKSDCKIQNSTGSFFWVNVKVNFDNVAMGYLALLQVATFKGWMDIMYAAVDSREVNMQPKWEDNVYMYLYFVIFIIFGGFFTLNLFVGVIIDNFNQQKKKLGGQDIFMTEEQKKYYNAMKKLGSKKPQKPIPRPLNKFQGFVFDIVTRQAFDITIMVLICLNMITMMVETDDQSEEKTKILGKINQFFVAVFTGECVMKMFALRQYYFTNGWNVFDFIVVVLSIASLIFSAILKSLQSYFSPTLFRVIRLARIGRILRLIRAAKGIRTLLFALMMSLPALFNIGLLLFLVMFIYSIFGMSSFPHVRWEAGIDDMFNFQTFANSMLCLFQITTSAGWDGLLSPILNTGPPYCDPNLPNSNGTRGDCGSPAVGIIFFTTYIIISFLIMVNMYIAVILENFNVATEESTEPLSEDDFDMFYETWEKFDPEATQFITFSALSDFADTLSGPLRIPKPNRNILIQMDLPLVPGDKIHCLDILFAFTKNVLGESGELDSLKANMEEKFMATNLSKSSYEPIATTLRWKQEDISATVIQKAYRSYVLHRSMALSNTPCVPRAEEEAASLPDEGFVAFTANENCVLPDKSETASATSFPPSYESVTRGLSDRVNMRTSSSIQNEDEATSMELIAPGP

**Q.** With `COc1cccc2c1CN(CC(=O)NCCSC(c1ccccc1)c1ccccc1)CC2` [Compound 96, N-(2-Benzhydrylsulfanyl-ethyl)-2-(8-methoxy-3,4-dihydro-1H-isoquinolin-2-yl)-acetamide] as the molecule, how does the IC50 read?
**A.** Its IC50 is 1.11 µM.

Same assay, conditions: Table 1; SH-SY-5Y hNav1.8 cells, inhibition of membrane depolarisation, FLIPR membrane potential dye, 250 nM TTX, test concentration range 100 μM-0.05 μM; read-out: IC50

**Q.** Which IC50 does the source give for `O=C(CN(CCC(c1ccccc1)c1ccccc1)CC(=O)N1CCc2ccccc2C1)N1CCc2ccccc2C1` [Example 33, 1-(3,4-Dihydro-1H-isoquinolin-2-yl)-2-[[2-(3,4-dihydro-1H-isoquinolin-2-yl)-2-oxo-ethyl]-(3,3-diphenyl-propyl)-amino]-ethanone] here?
**A.** The IC50 was 0.86 µM.

**Q.** For `COc1cccc2c1CN(C(=O)CNCC(c1ccccc1)c1ccccc1)CC2` [Example 39, 2-(2,2-Diphenyl-ethylamino)-1-(8-methoxy-3,4-dihydro-1H-isoquinolin-2-yl)-ethanone], which IC50 is on record?
**A.** Its IC50 is 0.45 µM.

**Q.** How did the IC50 turn out when `O=C(CN1CCc2ccccc2C1)N(Cc1ccccc1)Cc1ccccc1` [Example 16, N,N-Dibenzyl-2-(3,4-dihydro-1H-isoquinolin-2yl)-acetamide] was run?
**A.** The IC50 was 0.88 µM.

**Q.** For `O=C(CNCC(c1ccccc1)c1ccccc1)N1CCc2ccccc2C1` [Example 32, 1-(3,4-Dihydro-1-isoquinolin-2-yl)-2-(2,2-diphenyl-ethylamino)-ethanone], which IC50 is on record?
**A.** Its IC50 is 0.23 µM.

**Q.** `O=C(CN1CCc2cccc(O)c2C1)NC(c1ccccc1)c1ccccc1` [Example 24, N-Benzhydryl-2-(8-hydroxy-3,4-dihydro-1H-isoquinolin-2-yl)-acetamide] was tested. Which IC50 did it give?
**A.** The IC50 was 1.51 µM.

**Q.** With `O=C(CN1CCc2ccccc2C1)NCC(c1ccccc1)c1ccccc1` [Example 60, 2-(3,4-Dihydro-1H-isoquinolin-2-yl)-N-(2,2-diphenyl-ethyl)-acetamide] as the molecule, how does the IC50 read?
**A.** Its IC50 is 0.95 µM.

**Q.** Which IC50 does the source give for `COc1ccc2c(c1)CN(CC(=O)N(Cc1ccccc1)Cc1ccccc1)CC2` [Example 87, N,N-Dibenzyl-2-(7-methoxy-3,4-dihydro-1H-isoquinolin-2-yl)-acetamide] here?
**A.** The IC50 was 1.1 µM.

**Q.** Which IC50 does the source give for `Oc1cccc2c1CN(Cc1n[nH]nc1-c1ccccc1)CC2` [Example 45, 2-(5-Phenyl-2H-[1,2,3]triazol-4-ylmethyl)-1,2,3,4-tetrahydro-isoquinolin-8-ol] here?
**A.** Its IC50 is 7.21 µM.

**Q.** `COc1cccc2c1CN(C(C)C(=O)NCCC(c1ccccc1)c1ccccc1)CC2` (centres unmarked) [Example 77, N-(3,3-Diphenyl-propyl)-2-(8-methoxy-3,4-dihydro-1H-isoquinolin-2-yl)-propionamide] was tested. Which IC50 did it give?
**A.** Its IC50 is 0.66 µM.

Same assay, conditions: Table 2 (compound numbers of the list in the description); SH-SY-5Y hNav1.8 cells, inhibition of membrane depolarisation, FLIPR membrane potential dye, 250 nM TTX, test concentration range 100 μM-0.05 μM; read-out: IC50

**Q.** How did the IC50 turn out when `COc1cc2c(cc1OC)CN(CC(=O)N1c3ccccc3S(=O)(=O)c3ccccc31)CC2` [Compound 151, 2-(6,7-Dimethoxy-3,4-dihydro-1H-isoquinolin-2-yl)-1-(5,5-dioxo-5H-5lambda*6*-phenothiazin-10-yl)-ethanone] was run?
**A.** Its IC50 is 7.44 µM.

**Q.** With `Nc1cccc2c1CN(CC(=O)N1c3ccccc3Oc3ccccc31)CC2` [Compound 175, 2-(8-Amino-3,4-dihydro-1H-isoquinolin-2-yl)-1-phenoxazin-10-yl-ethanone] as the molecule, how does the IC50 read?
**A.** Its IC50 is 1.53 µM.

**Q.** With `COc1cccc2c1CN(CC(=O)N1c3ccccc3Oc3ccccc31)CC2` [Compound 72, 2-(8-methoxy-3,4-dihydro-1H-isoquinolin-2-yl)-1-phenoxazin-10-yl-ethanone] as the molecule, how does the IC50 read?
**A.** Its IC50 is 0.49 µM and 1.29 µM.

**Q.** For `COc1cccc2c1CN(CC(=O)NC(c1ccc(F)cc1)c1ccc(F)cc1)CC2` [Compound 120, N-[Bis-(4-fluoro-phenyl)-methyl]-2-(8-methoxy-3,4-dihydro-1H-isoquinolin-2-yl)-acetamide], which IC50 is on record?
**A.** Its IC50 is 3.34 µM.

**Q.** For `COc1cccc2c1CN(CCNC(=S)NC(c1ccccc1)c1ccccc1)CC2` [Compound 133, 1-Benzhydryl-3-[2-(8-methoxy-3,4-dihydro-1H-isoquinolin-2-yl)-ethyl]-thiourea], which IC50 is on record?
**A.** Its IC50 is 0.6 µM.

**Q.** How did the IC50 turn out when `O=C(CN1CCc2cccnc2C1)N(c1ccccc1)c1ccccc1` [Compound 181, 2-(5,8-Dihydro-6H-[1,7]naphthyridin-7-yl)-N,N-diphenyl-acetamide] was run?
**A.** Its IC50 is 20.4 µM.

**Q.** How did the IC50 turn out when `Nc1cccc2c1CN(CC(=O)NC(c1ccccc1)c1ccccc1)CC2` [Compound 108, 2-(8-Amino-3,4-dihydro-1H-isoquinolin-2-yl)-N-benzhydryl-acetamide] was run?
**A.** Its IC50 is 3.48 µM.

**Q.** How did the IC50 turn out when `COc1cc2c(cc1OC)CN(CCNC(=S)NCC(c1ccccc1)c1ccccc1)CC2` [Compound 138, 1-[2-(6,7-Dimethoxy-3,4-dihydro-1H-isoquinolin-2-yl)-ethyl]-3-(2,2-diphenyl-ethyl)-thiourea] was run?
**A.** The IC50 was 0.52 µM.

**Q.** `COc1cccc2c1CN(CC(=O)N1c3ccccc3Oc3ccccc31)C2` [Compound 196, 2-(4-Methoxy-1,3-dihydro-isoindol-2-yl)-1-phenoxazin-10-yl-ethanone] was tested. Which IC50 did it give?
**A.** Its IC50 is 0.93 µM.

**Q.** How did the IC50 turn out when `COc1cccc2c1CN(CC(=O)N1c3ccccc3Sc3ccc(C(C)=O)cc31)CC2` [Compound 148, 1-(2-Acetyl-phenothiazin-10-yl)-2-(8-methoxy-3,4-dihydro-1H-isoquinolin-2-yl)-ethanone] was run?
**A.** Its IC50 is 5.17 µM.

**Q.** How did the IC50 turn out when `COc1cccc2c1CN(CC(=O)N(c1ccccc1O)c1ncccc1N)CC2` [Compound 188, N-(3-Amino-pyridin-2-yl)-N-(2-hydroxy-phenyl)-2-(8-methoxy-3,4-dihydro-1H-isoquinolin-2-yl)-acetamide] was run?
**A.** The IC50 was 12 µM.

**Q.** For `O=C(CN1CCc2cccnc2C1)N1c2ccccc2Oc2ccccc21` [Compound 173, 2-(5,8-Dihydro-6H-[1,7]naphthyridin-7-yl)-1-phenoxazin-10-yl-ethanone], which IC50 is on record?
**A.** Its IC50 is 5.64 µM.

**Q.** How did the IC50 turn out when `O=C(NCCN1CCc2cccnc2C1)N1c2ccccc2Oc2ccccc21` [Compound 201, Phenoxazine-10-carboxylic acid [2-(5,8-dihydro-6H-[1,7]naphthyridin-7-yl)-ethyl]-amide] was run?
**A.** Its IC50 is 6.09 µM.

**Q.** For `COc1cccc2c1CN(CCNC(=S)NCC(c1ccccc1)c1ccccc1)CC2` [Compound 137, 1-(2,2-Diphenyl-ethyl)-3-[2-(8-methoxy-3,4-dihydro-1H-isoquinolin-2-yl)-ethyl]-thiourea], which IC50 is on record?
**A.** Its IC50 is 0.44 µM.

**Q.** `COc1cc2c(cc1OC)CN(CCNC(=O)N1c3ccccc3Oc3ccccc31)CC2` [Compound 165, Phenoxazine-10-carboxylic acid [2-(6,7-dimethoxy-3,4-dihydro-1H-isoquinolin-2-yl)-ethyl]-amide] was tested. Which IC50 did it give?
**A.** Its IC50 is 1.02 µM.

**Q.** With `O=C(CN1Cc2cccc(O)c2C1)N1c2ccccc2Oc2ccccc21` [Compound 202, 2-(4-Hydroxy-1,3-dihydro-isoindol-2-yl)-1-phenoxazin-10-yl-ethanone] as the molecule, how does the IC50 read?
**A.** The IC50 was 0.68 µM.

**Q.** How did the IC50 turn out when `COc1cc2c(cc1OC)CN(CC(=O)NN(c1ccccc1)c1ccccc1)CC2` [Compound 169, (6,7-Dimethoxy-3,4-dihydro-1H-isoquinolin-2-yl)-acetic acid N′,N′-diphenyl-hydrazide] was run?
**A.** The IC50 was 29.9 µM.

**Q.** For `CC(C)(C)C1COc2ccccc2N1C(=O)CN1CCc2cccc(O)c2C1` (centres unmarked) [Compound 211, 1-(3-tert-Butyl-2,3-dihydro-benzo[1,4]oxazin-4-yl)-2-(8-hydroxy-3,4-dihydro-1H-isoquinolin-2-yl)-ethanone], which IC50 is on record?
**A.** The IC50 was 3.03 µM.

**Q.** How did the IC50 turn out when `CC(=O)Nc1cccc2c1CN(CC(=O)NCCCC(c1ccccc1)c1ccccc1)CC2` [Compound 112, 2-(8-Acetylamino-3,4-dihydro-1H-isoquinolin-2-yl)-N-(4,4-diphenyl-butyl)-acetamide] was run?
**A.** The IC50 was 0.79 µM.

**Q.** Which IC50 does the source give for `CSc1ccc2c(c1)N(C(=O)CN1CCc3cccc(O)c3C1)c1ccccc1S2` [Compound 158, 2-(8-Hydroxy-3,4-dihydro-1H-isoquinolin-2-yl)-1-(2-methylsulfanyl-phenothiazin-10-yl)-ethanone] here?
**A.** The IC50 was 4.59 µM.

**Q.** How did the IC50 turn out when `Nc1cccc2c1CN(CC(=O)NCC(c1ccccc1)c1ccccc1)C2` [Compound 98, 2-(4-Amino-1,3-dihydro-isoindol-2-yl)-N-(2,2-diphenyl-ethyl)-acetamide] was run?
**A.** The IC50 was 6.76 µM.

**Q.** How did the IC50 turn out when `O=C(CN1CCc2cccc(O)c2C1)N1c2ccccc2Sc2ccc(Cl)cc21` [Compound 141, 1-(2-Chloro-phenothiazin-10-yl)-2-(8-hydroxy-3,4-dihydro-1H-isoquinolin-2-yl)-ethanone] was run?
**A.** Its IC50 is 1.85 µM.

**Q.** For `COc1cccc2c1CN(CC(=O)n1c3ccccc3c3ccccc31)CC2` [Compound 204, 1-Carbazol-9-yl-2-(8-methoxy-3,4-dihydro-1H-isoquinolin-2-yl)-ethanone], which IC50 is on record?
**A.** The IC50 was 10.7 µM.

**Q.** `O=C(CN1CCc2ccccc2C1)NC(c1ccc(F)cc1)c1ccc(F)cc1` [Compound 119, N-[Bis-(4-fluoro-phenyl)-methyl]-2-(3,4-dihydro-1H-isoquinolin-2-yl)-acetamide] was tested. Which IC50 did it give?
**A.** The IC50 was 1.91 µM.

**Q.** Which IC50 does the source give for `O=C(CN1CCc2c(O)cccc2C1)N1c2ccccc2Oc2ccccc21` [Compound 195, 2-(5-Hydroxy-3,4-dihydro-1H-isoquinolin-2-yl)-1-phenoxazin-10-yl-ethanone] here?
**A.** Its IC50 is 1.85 µM.
